Experimental data: article PMC10319809, “Chronic UCN2 treatment desensitizes CRHR2 and improves insulin sensitivity” (Nature Communications, 2023)
Where “and” joins values, the source holds several entries; their conditions need not be identical. Equal entries are not always repeated. Where no end group is shown, it is not given here.

How the values were obtained:
[1] = test system: soleus and gastrocnemius muscle; assay: In vivo [3H]2-deoxyglucose uptake in soleus and gastrocnemius muscle; set-up: species or system mouse; settings: [3H]2DG; for 2DG Uptake, gastrocnemius muscle: individual animals (Fig. 2I); for 2DG Uptake, soleus muscle: individual animals (Fig. 2J)
Procedure: To determine 2-deoxy-glucose (2DG) uptake in soleus and gastrocnemius muscle, mice were fasted for 5 h and anaesthetized with isoflurane. […] 15 min following 2DG administration, blood was collected via intracardiac stick and soleus and gastrocnemius muscles were dissected and snap frozen in liquid nitrogen. Samples were stored at −80 C until processing. Blood was treated with BaOH2 and ZnSO4 and after centrifugation, radioactivity was determined via liquid scintillation counting (Tri-Carb 5110TR, PerkinElmer, Waltham, MA). Tissue was homogenized and mixed with water or BaOH2 and ZnSO4 to determine total and unphosphorylated 2DG content.

HA-tagged CRHR2a = target: T1, HA-tagged CRHR2a (Homo sapiens, UniProt Q13324); assay: CRHR2 surface expression / internalization, confocal imaging of HEK293 cells with HA-tagged CRHR2a; format: cell-based; settings: 100 nM UCN2, HEK cells with HA-tagged CRHR2a; n = 4
T1 construct: expressed in transfected cells; host or cells: HEK293 cells, transient transfection with pcDNA3.1(+) plasmid using Lipofectamine 3000
T1 sequence (Q13324 1-411): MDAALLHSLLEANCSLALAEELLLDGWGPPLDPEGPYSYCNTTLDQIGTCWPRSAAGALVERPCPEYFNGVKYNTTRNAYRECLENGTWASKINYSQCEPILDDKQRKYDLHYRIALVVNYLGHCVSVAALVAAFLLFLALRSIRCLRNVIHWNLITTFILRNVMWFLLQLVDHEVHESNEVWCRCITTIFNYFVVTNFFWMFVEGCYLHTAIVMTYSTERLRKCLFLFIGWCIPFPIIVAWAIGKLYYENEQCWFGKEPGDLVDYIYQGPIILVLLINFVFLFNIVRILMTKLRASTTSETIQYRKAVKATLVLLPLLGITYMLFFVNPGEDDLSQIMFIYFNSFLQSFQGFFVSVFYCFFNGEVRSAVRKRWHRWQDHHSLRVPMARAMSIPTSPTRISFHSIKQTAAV
Procedure: β-Arrestin recruitment can sometimes cause the internalization of the receptor to which it is recruited. To assess whether CRHR2 is internalized following UCN2 treatment, we quantified CRHR2 receptor surface expression using confocal imaging of HEK cells transiently transfected with a plasmid expressing a […] CRHR2a construct (Fig. S3). Cells were treated with saline or 100 nM (−7.0 log[M]) UCN2 and surface expression was determined by fluorescent anti-HA antibody-binding, with and without permeabilizing the cell.
HEK293 cells were plated at a density of 10,000 cells per well into tissue culture-treated clear bottomed, optical microscopy quality, 96 well plates (Perkin Elmer, PhenoPlate 96-well) and grown for 1 day to ~40–60% confluency. Twenty-four hours after plating, cells were transfected with 50 ng of pcDNA3.1(+) plasmid encoding a N-terminally tagged CRHR2α construct using Lipofectamine 3000 (Thermofisher) following manufacturing protocols. Twenty-four hours following transfection, agonists were then added for 30 min and cells were incubated at 37 °C. Prior to imaging, cells were washed once with PBS and fixed with ice-cold 4% paraformaldehyde in PBS for 15 min. After washing 3 times with PBS, cells were kept in the Alexa Fluor 647 anti-HA (1:2000 dilution, BioLegend cat# 682404) diluted in 5% normal goat serum in PBS. […]

[2] = test system: AKT1S1, IRS1, AKT phosphorylation; assay: Western blot of p-AKT1S1, p-IRS1, p-AKT in gastrocnemius muscle; format: in vivo, mouse
Procedure: Animal tissues were snap-frozen in liquid nitrogen and stored at −80 °C. Frozen tissues were homogenized in ice-cold RIPA buffer (Sigma Aldrich, St. Louis, MO), and protein concentrations were determined using a BCA protein assay (Thermo Fisher Scientific, Waltham, MA). Protein extracts were separated on NuPAGE 4–20% Bis-Tris gels (Bio-Rad, Hercules, CA) and blotted onto PVDF membranes (Bio-Rad, Hercules, CA). Membranes were blocked for 1 h at room temperature in TBST (0.1%) containing 5% milk. Membranes were then incubated overnight at 4 °C with primary antibodies against pSer183-AKT1S1, total AKT1S1, pSer3-IRS1, total IRS1, pSer473-AKT, and total AKT (Cell Signaling, Danvers, MA #5936, #2610, #2385, #2382, #4060, and #4691, respectively) diluted 1:1000. Following three washing steps with TBST (0.1%), membranes were incubated with HRP-conjugated secondary antibodies for 1 h at room temperature. After thorough washing, proteins were visualized with SuperSignal West Dura Extended Duration Substrate (Thermo Fisher Scientific, Waltham, MA) on the Bio-Rad ChemiDoc MP. Immunoreactive bands were quantified using Image J Software (NIH).

male mice = assay: Glucose tolerance test (oGTT / IPGTT), blood glucose; format: in vivo, mouse
Procedure: All metabolic tests were performed using standard protocols on male littermates (aged: 10–14 weeks). For glucose tolerance tests (GTTs), animals were fasted for 8 h with ad libitum access to water. Fasting glucose measurements were taken before […] oral glucose dose. Blood glucose measurements were taken via tail nick using the AlphaTRAK 2 Glucose Monitoring System (Zoetis, Parsippany-Troy Hills, NJ) at 10, 30, 60, and 120 min after dose. Blood was collected for insulin measurement in EDTA tubes (Becton, Dickinson and Company, Franklin Lakes, NJ) and centrifuged to collect plasma (2000 g for 10 min at 4 °C), which was stored at −80 °C until analysis at 10, 30, 60, and 120 min after dose. Insulin levels were measured using an Ultrasensitive Mouse Insulin ELISA (ALPCO, Salem, NH), according to manufacturer’s instructions. For insulin tolerance tests (ITTs), animals were fasted for 8 h and blood glucose was measured before (0 min) and at 30, 60, 90, and 120 min following IP injection of 0.75 IU/kg of insulin (Humulin R, Eli Lilly, Indianapolis, IN). […]

[3] = UCN2 1 mg/kg IP +Insulin 0.75 IU/kg
[4] = UCN2 1 mg/kg IP +Veh (no insulin)

IVLSLDVPIGLLQILLEQARARAAREQATTNARILARVGHC-NH2 (C-terminus assumed) [UCN2, Urocortin 2]
2DG Uptake, gastrocnemius muscle [1, 3]: 17.97 µmol/g/h and 16.61 µmol/g/h and 11.65 µmol/g/h and 22.6 µmol/g/h and 21.1 µmol/g/h and 20.95 µmol/g/h and 16.15 µmol/g/h and 12.85 µmol/g/h | 2DG Uptake, soleus muscle [1, 3]: 25.34 µmol/g/h and 15.14 µmol/g/h and 16.51 µmol/g/h and 20.54 µmol/g/h and 24.42 µmol/g/h and 24.35 µmol/g/h and 25.91 µmol/g/h and 18.85 µmol/g/h | 2DG Uptake, gastrocnemius muscle [1, 4]: 2.37 µmol/g/h and 2.36 µmol/g/h and 2.81 µmol/g/h and 1.95 µmol/g/h and 2.97 µmol/g/h and 3.08 µmol/g/h and 2.83 µmol/g/h and 3.26 µmol/g/h | 2DG Uptake, soleus muscle [1, 4]: 2.44 µmol/g/h and 2.26 µmol/g/h and 2.42 µmol/g/h and 2.39 µmol/g/h and 2.31 µmol/g/h and 2.62 µmol/g/h and 3.69 µmol/g/h | CRHR2 internalization / surface receptor expression (HA-tagged CRHR2a): increase of CRHR2 internalization and decreased surface receptor expression | Relative pAKT1s1/AKT1s1 ([2]; Fig 5F, UCN2 vs Saline, individual samples): 0.4889 and 0.4355 and 0.6101 and 0.3366 | Relative pIRS1/IRS1 ([2]; Fig 5G, UCN2 vs Saline, individual samples): 0.5347 and 0.4912 and 0.4136 and 0.3459 | Relative pAKT/AKT ([2]; Fig 5H, UCN2 vs Saline, individual samples): 0.5139 and 0.5838 and 0.5951 and 0.5852 | AKT1S1, IRS1 and AKT phosphorylation, acute treatment ([2]; gastrocnemius, acute UCN2, Western blot): dephosphorylation | glucose tolerance after acute UCN2 in UCN2.AAV animals (male mice; UCN2.AAV animals injected acutely with UCN2): worsened glucose tolerance | glucose tolerance in oGTT (male mice; oGTT twenty minutes after 1 mg/kg IP UCN2): glucose intolerance
